Test results published in patent US10800807B2, “TGR5 modulators and methods of use thereof” (Intercept Pharmaceuticals, Inc., priority 2015, dated 2020).
Where a chain is given by its changes, count along the chain named. Like-named read-outs stand apart in the source and are kept apart here.

What was measured:
mTGR5 = target: T1, mTGR5 (Mus musculus, UniProt Q80SS6); test: TGR5 activity: cAMP in mTGR5 CHO-Pi10 clone 4 cells; format: cell-based; settings: for Emax: 0.5 h, read-out: (mTGR5 CHO) Efficacy
T1 construct: expressed in transfected cells; host or cells: CHO-Pi10 clone 4
T1 sequence (Q80SS6 1-329): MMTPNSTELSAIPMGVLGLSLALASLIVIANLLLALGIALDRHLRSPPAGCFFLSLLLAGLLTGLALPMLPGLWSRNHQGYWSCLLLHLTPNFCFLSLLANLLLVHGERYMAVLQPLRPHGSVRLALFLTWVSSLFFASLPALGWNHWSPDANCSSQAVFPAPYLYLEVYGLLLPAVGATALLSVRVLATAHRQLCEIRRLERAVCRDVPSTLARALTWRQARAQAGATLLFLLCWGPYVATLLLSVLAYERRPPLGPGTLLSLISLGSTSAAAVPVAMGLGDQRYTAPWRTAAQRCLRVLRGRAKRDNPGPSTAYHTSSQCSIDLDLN

[1] = target: T2, human glutathione transferase-tagged FXR-LBD (Homo sapiens, UniProt Q96RI1); test: FXR AlphaScreen coactivator recruitment assay (human); format: biochemical; design: Emax: dose or concentration left out as unconfirmed; settings: for EC50: human FXR-LBD, AlphaScreen, read-out: hFXR EC50; for Emax: read-out: hFXR Efficacy;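 on hFXR Efficacy: CDCA at 50 µM taken as 100%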
T2 construct: human glutathione transferase-tagged FXR-LBD (Life Technologies, USA); purchased Life Technologies, USA
T2 sequence (Q96RI1 262-486 limits assumed): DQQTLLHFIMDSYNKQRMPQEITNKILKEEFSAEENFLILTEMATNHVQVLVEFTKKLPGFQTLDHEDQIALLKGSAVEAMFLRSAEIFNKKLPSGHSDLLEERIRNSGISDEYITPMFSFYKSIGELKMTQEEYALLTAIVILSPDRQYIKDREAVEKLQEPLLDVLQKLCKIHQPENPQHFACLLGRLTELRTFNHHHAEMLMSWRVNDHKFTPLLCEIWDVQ
Experimental: (§1) Activation of the FXR receptor was determined using a recruitment coactivator assay, namely AlphaScreen technology. The assays were performed using human glutathione transferase-tagged FXR-LBD (Life Technologies, USA) and mouse glutathione transferase-tagged FXR-LBD (generated in-house). Briefly, assays were conducted in white, low-volume, 384-well OptiPlate using a final volume of 25 μL containing 10 nM glutathione transferase-tagged FXR-LBD protein and 30 nM biotinylated Src-1 peptide. The stimulation was carried out with different BA concentrations for 30 minutes at 25° C. […] Dose-response curves were performed in triplicate and Z′ factor was used to validate the robustness of the assay.

[2] = target: T3, mouse glutathione transferase-tagged FXR-LBD (Mus musculus, UniProt Q60641); test: FXR AlphaScreen coactivator recruitment assay (mouse); format: biochemical; settings: for EC50: read-out: (mFXR) EC50; for Emax: read-out: (mFXR) Efficacy
T3 construct: mouse glutathione transferase-tagged FXR-LBD (generated in-house); made in house
T3 sequence (Q60641 264-488 limits assumed): T2 sequence (Q96RI1 262-486 limits assumed) with H7D, F8Y, N46S, V50I, S95A, S98A, N107K, I125V, I174M, H175Y
Experimental: as §1

TGR5 [3] = target: T4, TGR5 (Homo sapiens, UniProt Q8TDU6); test: TGR5 activity: intracellular cAMP levels, NCI-H716 cells (HTR-FRET); format: cell-based; design: endogenous in cells; host or cells: NCI-H716; settings: for Emax: read-out: TGR5 (NCI-H716) Efficacy; for EC50: cAMP
T4 sequence (Q8TDU6 1-330): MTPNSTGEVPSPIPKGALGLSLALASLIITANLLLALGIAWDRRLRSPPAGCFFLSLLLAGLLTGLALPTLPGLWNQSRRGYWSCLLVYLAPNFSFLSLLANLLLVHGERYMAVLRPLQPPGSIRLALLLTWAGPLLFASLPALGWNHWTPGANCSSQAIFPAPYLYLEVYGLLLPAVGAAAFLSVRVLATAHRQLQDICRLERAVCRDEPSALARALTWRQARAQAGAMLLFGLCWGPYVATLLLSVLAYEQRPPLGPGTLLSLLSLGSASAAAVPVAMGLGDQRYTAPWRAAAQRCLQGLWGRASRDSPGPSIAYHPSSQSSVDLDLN
Experimental: Activation of TGR5 was assessed by measuring the level of cAMP using an HTR-FRET assay. Thus, NCI-H716 cells were cultured on 96-well plates coated with Matrigel (Corning, USA) (0.75 mg/ml) in DMEM supplemented with 10% FCS, 100 units/ml penicillin, and 100 μg/ml streptomycin sulphate. […] The level of intracellular cAMP was determined with Lance kit. Z′ factor was used to validate assays.

TGR5 [4] = target: T4, TGR5; test: TGR5 activity: cAMP in hTGR5 CHO-k1 cells; format: cell-based; design: expressed in transfected cells; host or cells: CHO-k1; settings: for Emax: 0.5 h, read-out: hTGR5 CHO Efficacy; for EC50: cAMP
[5] = mTGR5 CHO cells, value in parentheses
[6] = mouse FXR-LBD, value in parentheses
[7] = 1 h, NCI-H716 cells, Ref. LCA 100% at 10 μM
[8] = hTGR5 CHO cells, Ref. LCA 100% at 10 μM

| SMILES | Emax (mTGR5; [5]) [%] | EC50 (mTGR5; [5]) [nM] | EC50 [1] [nM] | Emax [1] [%] | EC50 [2, 6] [nM] | Emax [2, 6] [%] | Emax (TGR5 [3]; [7]) [%] | EC50 (TGR5 [3]; NCI-H716 cells) [nM] | Emax (TGR5 [4]; [8]) [%] | EC50 (TGR5 [4]; hTGR5 CHO cells) [nM] | Emax (mTGR5; CHO) [%] | Emax (TGR5 [4]; CHO) [%] | Emax [2] [%] | Emax (TGR5 [3]; NCI-H716, 1 h) [%] |
| --- | --- | --- | --- | --- | --- | --- | --- | --- | --- | --- | --- | --- | --- | --- |
| CC[C@H]1[C@@H](O)[C@@H]2[C@H](C[C@H](O)[C@]3(C)[C@@H]([C@H](C)C[C@H](O)C(=O)O)CC[C@@H]23)[C@@]2(C)CC[C@@H](O)C[C@@H]12 [Compound 1, 3α,7α,12α,23(S)-tetrahydroxy-6α-ethyl-5β-cholan-24-oic acid] | 115 | 700 | 32000 ± 8000 | 52 | 146000 | 9 | 40 | 19000 | 103 ± 1 | 3500 ± 1500 |  |  |  |  |
| CC[C@H]1[C@@H](O)[C@@H]2[C@H](C[C@H](O)[C@]3(C)[C@@H]([C@H](C)C[C@@H](O)C(=O)O)CC[C@@H]23)[C@@]2(C)CC[C@@H](O)C[C@@H]12 [Compound 2, 3α,7α,12α,23(R)-tetrahydroxy-6α-ethyl-5β-cholan-24-oic acid] | 93.5 | 1500 | 20000 ± 9000 | 200 | 84000 | 61 | 55 | 12000 | 47.5 ± 2.5 | 17000 ± 2000 |  |  |  |  |
| CC[C@H]1[C@@H](O)C2C3CC[C@H]([C@H](C)C[C@H](CO)C(=O)O)[C@@]3(C)[C@@H](O)CC2[C@@]2(C)CC[C@@H](O)C[C@@H]12 (stereo partly drawn) [Compound 5, 3α,7α,12α-Trihydroxy-6α-ethyl-23(B)-hydroxymethyl-5β-cholan-24-oic acid] |  | 3400 | 20000 | 37 |  |  |  |  |  | 21000 | 84.6 | 43.6 |  |  |
| CC[C@H]1[C@@H](O)[C@@H]2[C@H](C[C@H](O)[C@]3(C)[C@@H]([C@H](C)C[C@@H](CF)C(=O)O)CC[C@@H]23)[C@@]2(C)CC[C@@H](O)C[C@@H]12 [Compound 6, 3α,7α,12α-Trihydroxy-6α-ethyl-23(A)-fluoromethyl-fluoromethyl-5β-cholan-24-oic acid] |  | 3800 | > 100000 |  |  |  |  |  |  | 29500 | 81 | 28 |  |  |
| CC[C@H]1[C@@H](O)[C@@H]2[C@H](C[C@H](O)[C@]3(C)[C@@H]([C@H](C)C[C@H](CF)C(=O)O)CC[C@@H]23)[C@@]2(C)CC[C@@H](O)C[C@@H]12 [Compound 7, 3α,7α,12α-Trihydroxy-6α-ethyl-23(A)-fluoromethyl-fluoromethyl-5β-cholan-24-oic acid] | 119 | 2000 | 13000 | 83 |  |  |  |  | 27 | 7900 |  |  |  |  |
| CC[C@@H]1C2C[C@H](O)CC[C@]2(C)C2CC[C@@]3(C)C(CC[C@@H]3[C@H](C)Cc3nn[nH]n3)C2[C@@H]1O (stereo partly drawn) [Compound 13] | 90 | 2300 | 430 | 138 | 1400 | 208 | 84 ± 14 | 6400 ± 1100 | 102 ± 3 | 1000 ± 100 |  |  |  |  |
| CC[C@H]1[C@@H](O)C2C3CC[C@H]([C@H](C)CCc4noc(=O)[nH]4)[C@@]3(C)CCC2[C@@]2(C)CC[C@@H](O)C[C@@H]12 (stereo partly drawn) [Compound 16, 3α,7α-Dihydroxy-6α-ethyl-24-nor-5β-23([1,2,4]-oxadiazole-3-one-5-yl)-cholane] | 99 | 440 | 150 ± 50 | 165 ± 19 | 6600 | 204 | 116 ± 9 | 3000 ± 300 | 99 ± 4 | 1200 ± 100 |  |  |  |  |
| CC[C@H]1[C@@H](O)[C@@H]2[C@H](CC[C@]3(C)[C@@H]([C@H](C)CCc4nc(=O)o[nH]4)[C@@H](O)C[C@@H]23)[C@@]2(C)CC[C@@H](O)C[C@@H]12 [Compound 18] | 101 | 370 | 550 ± 30 | 132 ± 8 | 2300 | 150 | 115 ± 4 | 1800 ± 200 | 104 ± 1 | 110 ± 30 |  |  |  |  |
| CC[C@H]1[C@@H](O)C2C3CC[C@H]([C@H](C)CC(=O)NO)[C@@]3(C)CCC2[C@@]2(C)CC[C@@H](O)C[C@@H]12 (stereo partly drawn) [Compound 20] | 101 | 500 | 8700 ± 40 | 122 ± 3 | 16000 | 85 | 148 ± 1 | 700 ± 100 | 109 ± 5 | 300 ± 140 |  |  |  |  |
| CC[C@H]1[C@@H](O)C2C3CC[C@H]([C@H](C)CCc4nnc(NS(C)(=O)=O)o4)[C@@]3(C)CCC2[C@@]2(C)CC[C@@H](O)C[C@@H]12 (stereo partly drawn) [Compound 23, 2-(3α,7α-Dihydroxy-6α-ethyl-5β-cholan-24-nor-23-cholanyl)-5-methylsulfonamido-1,3,4-oxadiazole] |  | 1400 | 100 ± 20 | 175 ± 22 | 330 |  |  | 12500 ± 1500 |  | 1300 ± 100 | 110 | 111 ± 2 | 342 | 75 ± 1 |
